Measurements published in ChEMBL document CHEMBL1201862, “PubChem BioAssay data set” (2004).
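96-well plates; 48 h exposure; 5 concentrations. Endpoints by linear interpolation between flanking doses. Not reached: highest tested concentration assigned. Here, GI50 denotes the concentration required for 50% inhibition of growth.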 Calls of active or inactive are those of the source. No stated cut-off is given here; in the data, active = GI50 up to about 1.1 µM and inactive = higher.

Legend:
Test in all cases: NCI anticancer screen, dose series, 48 h
786-0 = tested on: 786-0
COLO 205 = tested on: COLO 205
EKVX = tested on: EKVX
HCT-116 = tested on: HCT-116
HL-60 = tested on: HL-60
KM12 = tested on: KM12
M14 = tested on: M14
MOLT-4 = tested on: MOLT-4
NCI-H460 = tested on: NCI-H460
OVCAR-8 = tested on: OVCAR-8
SF-268 = tested on: SF-268
SF-295 = tested on: SF-295
SK-MEL-28 = tested on: SK-MEL-28
SN12C = tested on: SN12C
SR = tested on: SR
UACC-257 = tested on: UACC-257
DU-145 = tested on: DU-145
MDA-MB-435 = tested on: MDA-MB-435
NCI/ADR-RES = tested on: NCI/ADR-RES
PC-3 = tested on: PC-3

SMILES	GI50 (786-0)	GI50 (COLO 205)	GI50 (EKVX)	GI50 (HCT-116)	GI50 (HL-60)	GI50 (KM12)	GI50 (M14)	GI50 (MOLT-4)	GI50 (NCI-H460)	GI50 (OVCAR-8)	GI50 (SF-268)	GI50 (SF-295)	GI50 (SK-MEL-28)	GI50 (SN12C)	GI50 (SR)	GI50 (UACC-257)	GI50 (DU-145)	GI50 (MDA-MB-435)	GI50 (NCI/ADR-RES)	GI50 (PC-3)
N#CCCCCCOCCOCCOCCOCCOCCCCCC#N	> 100 µM (inactive)	> 100 µM (inactive)	> 100 µM (inactive)	> 100 µM (inactive)	> 100 µM (inactive)	> 100 µM (inactive)	> 100 µM (inactive)	> 100 µM (inactive)	> 100 µM (inactive)	> 100 µM (inactive)	> 100 µM (inactive)	> 100 µM (inactive)	> 100 µM (inactive)	> 100 µM (inactive)	> 100 µM (inactive)	81.1 µM (inactive)				
O=C(OCc1ccccc1)N1CCN(C(=O)OCc2ccccc2)CCN(C(=O)OCc2ccccc2)CCN(C(=O)OCc2ccccc2)CCN(C(=O)OCc2ccccc2)CC1	16.8 µM (inactive)	31.1 µM (inactive)	> 100 µM (inactive)	> 100 µM (inactive)		> 100 µM (inactive)	35.3 µM (inactive)	> 100 µM (inactive)	> 100 µM (inactive)	> 100 µM (inactive)		> 100 µM (inactive)	> 100 µM (inactive)	> 100 µM (inactive)		26.7 µM (inactive)	> 100 µM (inactive)	> 100 µM (inactive)	79.4 µM (inactive)	> 100 µM (inactive)
O=C1C2C(C(=O)N1O)N(Cc1ccccc1)C(=O)N2Cc1ccccc1 (centres undefined)	> 100 µM (inactive)	> 100 µM (inactive)	> 100 µM (inactive)	> 100 µM (inactive)	> 100 µM (inactive)	> 100 µM (inactive)	> 100 µM (inactive)	> 100 µM (inactive)	> 100 µM (inactive)	> 100 µM (inactive)	> 100 µM (inactive)	> 100 µM (inactive)	> 100 µM (inactive)	> 100 µM (inactive)	> 100 µM (inactive)	> 100 µM (inactive)				
CC(C)C(=O)[C@@]1(C)SC[C@H]2CCN=C21	> 100 µM (inactive)	> 100 µM (inactive)	> 100 µM (inactive)	> 100 µM (inactive)	> 100 µM (inactive)	> 100 µM (inactive)	71 µM (inactive)	42.9 µM (inactive)	> 100 µM (inactive)	> 100 µM (inactive)		> 100 µM (inactive)	> 100 µM (inactive)	> 100 µM (inactive)	56.8 µM (inactive)	> 100 µM (inactive)	> 100 µM (inactive)	25.1 µM (inactive)	> 100 µM (inactive)	
Cc1ccc(S(=O)(=O)NC(=O)NC2=NC(C)(C)N(c3ccc(Cl)c(Cl)c3)C(N)=N2)cc1	8.3 µM (inactive)	10.2 µM (inactive)	> 100 µM (inactive)	3.72 µM (inactive)	29.5 µM (inactive)	65.8 µM (inactive)	17.6 µM (inactive)	7.43 µM (inactive)	36 µM (inactive)	9.89 µM (inactive)	20.5 µM (inactive)	41.5 µM (inactive)	> 100 µM (inactive)	20.6 µM (inactive)	8.75 µM (inactive)	36 µM (inactive)	64.4 µM (inactive)		> 100 µM (inactive)	0.552 µM (active)
CN(C)c1ccc2nc3c(ccc4ccccc43)[o+]c2c1	15.5 µM (inactive)	16.3 µM (inactive)	20.9 µM (inactive)	5.97 µM (inactive)	1.95 µM (inactive)	15 µM (inactive)	11 µM (inactive)	2.99 µM (inactive)	16.2 µM (inactive)	12.4 µM (inactive)	15.8 µM (inactive)	15.5 µM (inactive)	14.8 µM (inactive)	17.1 µM (inactive)	3.42 µM (inactive)	4.67 µM (inactive)				
CC(C)C(=O)Nc1nc2c(ncn2C2OC(CO)C(O)C2O)c(=O)[nH]1 (centres undefined)	> 100 µM (inactive)	> 100 µM (inactive)	> 100 µM (inactive)	> 100 µM (inactive)	> 100 µM (inactive)	> 100 µM (inactive)	> 100 µM (inactive)	> 100 µM (inactive)	> 100 µM (inactive)	> 100 µM (inactive)	> 100 µM (inactive)	> 100 µM (inactive)	> 100 µM (inactive)	> 100 µM (inactive)	> 100 µM (inactive)	> 100 µM (inactive)				
CC(C)(O)[C@@H]1CCC(C)([C@H]2[C@@H](O)CC3(C)C4CC(OC5OC(CO)C(O)C(O)C5O)C5C(C)(C)[C@@H](OC6OCC(O)C(O)C6O)CC[C@@]56C[C@@]46CC[C@]23C)O1 (some centres undefined)	> 100 µM (inactive)	> 100 µM (inactive)	> 100 µM (inactive)	> 100 µM (inactive)	> 100 µM (inactive)	> 100 µM (inactive)	> 100 µM (inactive)	> 100 µM (inactive)	> 100 µM (inactive)	> 100 µM (inactive)	> 100 µM (inactive)	> 100 µM (inactive)	> 100 µM (inactive)	> 100 µM (inactive)	> 100 µM (inactive)	> 100 µM (inactive)				
